Assay results as given in ChEMBL document CHEMBL4837196, “Cytotoxic and Antiangiogenetic Xanthones Inhibiting Tumor Proliferation and Metastasis from Garcinia xipshuanbannaensis” (J Nat Prod, 2021).
Active and inactive are the calls of the source. The calls are words filed in the database; no cut-off is given here.

What was measured:
HeLa [1] = assay: Induction of apoptosis in human HeLa cells assessed as early apoptotic cells at 12 uM measured after 48 hrs by Annexin V-FITC/propidium iodide staining based flow cytometric analysis (reference value: 3.34 %); assay type: functional
HeLa [2] = assay: Cell cycle arrest in human HeLa cells assessed as accumulation at S phase at 24 uM measured after 48 hrs by PI-staining based flow cytometric analysis (reference value: 51.39%); assay type: functional
HeLa [3] = assay: Cell cycle arrest in human HeLa cells assessed as accumulation at S phase at 12 uM measured after 48 hrs by PI-staining based flow cytometric analysis (reference value: 51.39%); assay type: functional
HeLa [4] = assay: Induction of reactive oxygen species generation in human HeLa cells assessed as increase in ROS level at 2.5 to 30 uM measured after 48 hrs by DCFH-DA staining based flow cytometric analysis; assay type: functional, cell-based; settings: dose 2.5-30 µM
HeLa [5] = assay: Induction of apoptosis in human HeLa cells assessed as necrotic cells at 24 uM measured after 48 hrs by Annexin V-FITC/propidium iodide staining based flow cytometric analysis (reference value: 1.32 %); assay type: functional
[6] = Effect on STAT3 protein level in human HeLa cells at 6 to 24 uM by Western blotting; assay type: ADME, cell-based; settings: dose 6-24 µM
HeLa [7] = assay: Cell cycle arrest in human HeLa cells assessed as accumulation at G0/G1 phase at 6 uM measured after 48 hrs by PI-staining based flow cytometric analysis (reference value: 40.03%); assay type: functional
HeLa [8] = assay: Induction of apoptosis in human HeLa cells assessed as late apoptotic cells at 6 uM measured after 48 hrs by Annexin V-FITC/propidium iodide staining based flow cytometric analysis (reference value: 12.2 %); assay type: functional
[9] = molecular target: Signal transducer and activator of transcription 3 (Homo sapiens) (UniProt P40763); assay: Inhibition of STAT3 activation in human HeLa cells measured after 12 hrs by western blot analysis; assay type: cell-based
Sequence of Signal transducer and activator of transcription 3 (Homo sapiens) (P40763 whole entry): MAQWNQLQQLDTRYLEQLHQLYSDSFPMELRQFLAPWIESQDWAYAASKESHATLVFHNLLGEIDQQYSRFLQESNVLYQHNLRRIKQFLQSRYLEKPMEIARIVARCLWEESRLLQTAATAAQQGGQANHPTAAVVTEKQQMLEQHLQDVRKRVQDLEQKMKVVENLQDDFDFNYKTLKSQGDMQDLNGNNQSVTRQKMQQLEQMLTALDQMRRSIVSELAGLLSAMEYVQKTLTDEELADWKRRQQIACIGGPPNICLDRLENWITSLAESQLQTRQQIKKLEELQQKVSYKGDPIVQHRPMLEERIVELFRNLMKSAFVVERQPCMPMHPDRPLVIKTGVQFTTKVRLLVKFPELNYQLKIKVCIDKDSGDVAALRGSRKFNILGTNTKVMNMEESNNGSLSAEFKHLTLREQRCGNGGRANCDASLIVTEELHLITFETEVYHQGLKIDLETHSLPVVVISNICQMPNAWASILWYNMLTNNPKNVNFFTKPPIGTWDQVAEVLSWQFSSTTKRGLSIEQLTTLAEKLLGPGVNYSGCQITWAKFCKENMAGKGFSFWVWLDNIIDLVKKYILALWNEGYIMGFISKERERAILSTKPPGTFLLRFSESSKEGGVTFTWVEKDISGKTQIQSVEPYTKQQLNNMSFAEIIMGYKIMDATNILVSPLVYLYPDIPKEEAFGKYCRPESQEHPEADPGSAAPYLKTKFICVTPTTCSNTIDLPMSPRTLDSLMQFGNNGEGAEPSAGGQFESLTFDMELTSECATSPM

HeLa [10] = assay: Cell cycle arrest in human HeLa cells assessed as accumulation at G2 phase at 6 uM measured after 48 hrs by PI-staining based flow cytometric analysis (reference value: 8.58%); assay type: functional
HeLa [11] = assay: Induction of apoptosis in human HeLa cells assessed as late apoptotic cells at 24 uM measured after 48 hrs by Annexin V-FITC/propidium iodide staining based flow cytometric analysis (reference value: 12.2 %); assay type: functional
HeLa [12] = assay: Cell cycle arrest in human HeLa cells assessed as accumulation at G2 phase at 12 uM measured after 48 hrs by PI-staining based flow cytometric analysis (reference value: 8.58%); assay type: functional
Danio rerio [13] = species: Danio rerio; assay: Antiangiogenesis activity in Tg(fli1:EGFP) transgenic zebrafish embryo assessed as change in intersegmental vessels length at 48 uM measured after 48 hrs by confocal microscopy analysis (reference value: 3233.3 micrometer); assay type: functional
HeLa [14] = assay: Cell cycle arrest in human HeLa cells assessed as accumulation at G2 phase at 24 uM measured after 48 hrs by PI-staining based flow cytometric analysis (reference value: 8.58%); assay type: functional
HeLa [15] = assay: Induction of apoptosis in human HeLa cells assessed as early apoptotic cells at 6 uM measured after 48 hrs by Annexin V-FITC/propidium iodide staining based flow cytometric analysis (reference value: 3.34 %); assay type: functional
HeLa [16] = assay: Induction of apoptosis in human HeLa cells assessed as late apoptotic cells at 12 uM measured after 48 hrs by Annexin V-FITC/propidium iodide staining based flow cytometric analysis (reference value: 12.2 %); assay type: functional
HeLa [17] = assay: Induction of apoptosis in human HeLa cells assessed as viable cells at 24 uM measured after 48 hrs by Annexin V-FITC/propidium iodide staining based flow cytometric analysis (reference value: 83.1 %); assay type: functional; settings: read-out: Activity
HeLa [18] = assay: Cell cycle arrest in human HeLa cells assessed as accumulation at G0/G1 phase at 12 uM measured after 48 hrs by PI-staining based flow cytometric analysis (reference value: 40.03%); assay type: functional
Danio rerio [19] = species: Danio rerio; assay: Antiangiogenesis activity in Tg(fli1:EGFP) transgenic zebrafish embryo assessed as change in intersegmental vessels length at 12 uM measured after 48 hrs by confocal microscopy analysis (reference value: 3233.3 micrometer); assay type: functional
HeLa [20] = assay: Cytotoxicity against human HeLa cells assessed as inhibition of cell proliferation incubated for 48 hrs by MTT assay; assay type: functional, cell-based
HeLa [21] = assay: Induction of apoptosis in human HeLa cells assessed as viable cells at 12 uM measured after 48 hrs by Annexin V-FITC/propidium iodide staining based flow cytometric analysis (reference value: 83.1 %); assay type: functional; settings: read-out: Activity
HepG2 [22] = assay: Cytotoxicity against human HepG2 cells assessed as inhibition of cell proliferation incubated for 48 hrs by MTT assay; assay type: functional, cell-based; settings: HepG2, 48 h
HeLa [23] = assay: Induction of apoptosis in human HeLa cells assessed as early apoptotic cells at 24 uM measured after 48 hrs by Annexin V-FITC/propidium iodide staining based flow cytometric analysis (reference value: 3.34 %); assay type: functional
HeLa [24] = assay: Induction of apoptosis in human HeLa cells assessed as necrotic cells at 6 uM measured after 48 hrs by Annexin V-FITC/propidium iodide staining based flow cytometric analysis (reference value: 1.32 %); assay type: functional
[25] = molecular target: Signal transducer and activator of transcription 3 (Homo sapiens) (UniProt P40763); assay: Inhibition of STAT3 phosphorylation in human HeLa cells measured after 12 hrs by western blot analysis; assay type: cell-based
HeLa [26] = assay: Induction of apoptosis in human HeLa cells assessed as viable cells at 6 uM measured after 48 hrs by Annexin V-FITC/propidium iodide staining based flow cytometric analysis (reference value: 83.1 %); assay type: functional; settings: read-out: Activity
K562 = assay: Cytotoxicity against human K562 cells assessed as inhibition of cell proliferation incubated for 48 hrs by MTT assay; assay type: functional, cell-based; settings: K562, 48 h
HeLa [27] = assay: Cell cycle arrest in human HeLa cells assessed as accumulation at G0/G1 phase at 24 uM measured after 48 hrs by PI-staining based flow cytometric analysis (reference value: 40.03%); assay type: functional
HeLa [28] = assay: Cell cycle arrest in human HeLa cells assessed as accumulation at S phase at 6 uM measured after 48 hrs by PI-staining based flow cytometric analysis (reference value: 51.39%); assay type: functional
HeLa [29] = assay: Induction of apoptosis in human HeLa cells assessed as necrotic cells at 12 uM measured after 48 hrs by Annexin V-FITC/propidium iodide staining based flow cytometric analysis (reference value: 1.32 %); assay type: functional
HepG2 [30] = assay: Antitumour activity against CM-Dil labeled human HepG2 cells xenografted in AB zebrafish embryo assessed as retarded tumor growth measured after 48 hrs by confocal microscopy analysis; assay type: functional, cell-based; settings: dose 12-48 µM
Danio rerio [31] = species: Danio rerio; assay: Antiangiogenesis activity in Tg(fli1:EGFP) transgenic zebrafish embryo assessed as change in intersegmental vessels length at 24 uM measured after 48 hrs by confocal microscopy analysis (reference value: 3233.3 micrometer); assay type: functional

In the case of COC(C)(C)CCc1c(O)c(O)cc2oc3c4c(c(CC=C(C)C)c(O)c3c(=O)c12)OC(C)(C)C=C4, the Activity (HeLa [1]) is reported as 8.23%, the Activity (HeLa [2]) is reported as 31.09% and the Activity (HeLa [3]) is reported as 29.59%. The Activity (HeLa [4]) was “Active”, the Activity (HeLa [5]) was 3.76% and the Activity [6] was “Non-Toxic”. For the same compound, the Activity (HeLa [7]) was 55.33%, the Activity (HeLa [8]) was 16.1% and the inhibition [9] was “Dose-Dependent Effect”. The Activity (HeLa [10]) was 6.58%, the Activity (HeLa [11]) was 24% and the Activity (HeLa [12]) was 4.63%. It also gave an Activity (Danio rerio [13]) of 1881.6 um, an Activity (HeLa [14]) of 1.71% and an Activity (HeLa [15]) of 6.92%. For the same compound, the Activity (HeLa [16]) was 18%, the viability at 24 µM (HeLa [17]) was 58.1% and the Activity (HeLa [18]) was 65.78%. For the same compound, the Activity (Danio rerio [19]) was 2476.5 um, the IC50 (HeLa [20]) was 9.6 µM and the viability at 12 µM (HeLa [21]) was 71.2%. The IC50 (HepG2 [22]) was > 10 µM, the Activity (HeLa [23]) was 13.6% and the Activity (HeLa [24]) was 1.72%. For the same compound, the inhibition [25] was “Active”, the viability at 6 µM (HeLa [26]) was 75.2% and the IC50 (K562) was > 10 µM. For the same compound, the Activity (HeLa [27]) was 67.2%, the Activity (HeLa [28]) was 38.09% and the Activity (HeLa [29]) was 2.63%. The Activity (HepG2 [30]) was “Dose-Dependent Effect” and the Activity (Danio rerio [31]) was 2263.2 um.

COC(=O)C[C@](O)(CCCC(C)(C)O)C(=O)O[C@@H]1C(OC)=C[C@]23CCCN2CCc2cc4c(cc2[C@H]13)OCO4 [OMACETAXINE MEPESUCCINATE] gave an IC50 (HeLa [20]) of 0.4 µM.

With COc1cc([C@@H]2c3cc4c(cc3[C@@H](O[C@@H]3O[C@@H]5CO[C@@H](C)O[C@H]5[C@H](O)[C@H]3O)[C@H]3COC(=O)[C@H]23)OCO4)cc(OC)c1O the Activity (HepG2 [30]) was “Dose-Dependent Effect”.
